Measured values taken from patent US9227919B2, “Arylalkylamine compounds as calcium sensing receptor modulators” (Lupin Limited, priority 2012, dated 2016).
Structures can show the parent of a compound that is named as a salt.

Target: T1, Calcium Sensing Receptor (CaSR) (Homo sapiens, UniProt P41180)
T1 construct: expressed in transfected cells
T1 sequence (P41180 20-1078): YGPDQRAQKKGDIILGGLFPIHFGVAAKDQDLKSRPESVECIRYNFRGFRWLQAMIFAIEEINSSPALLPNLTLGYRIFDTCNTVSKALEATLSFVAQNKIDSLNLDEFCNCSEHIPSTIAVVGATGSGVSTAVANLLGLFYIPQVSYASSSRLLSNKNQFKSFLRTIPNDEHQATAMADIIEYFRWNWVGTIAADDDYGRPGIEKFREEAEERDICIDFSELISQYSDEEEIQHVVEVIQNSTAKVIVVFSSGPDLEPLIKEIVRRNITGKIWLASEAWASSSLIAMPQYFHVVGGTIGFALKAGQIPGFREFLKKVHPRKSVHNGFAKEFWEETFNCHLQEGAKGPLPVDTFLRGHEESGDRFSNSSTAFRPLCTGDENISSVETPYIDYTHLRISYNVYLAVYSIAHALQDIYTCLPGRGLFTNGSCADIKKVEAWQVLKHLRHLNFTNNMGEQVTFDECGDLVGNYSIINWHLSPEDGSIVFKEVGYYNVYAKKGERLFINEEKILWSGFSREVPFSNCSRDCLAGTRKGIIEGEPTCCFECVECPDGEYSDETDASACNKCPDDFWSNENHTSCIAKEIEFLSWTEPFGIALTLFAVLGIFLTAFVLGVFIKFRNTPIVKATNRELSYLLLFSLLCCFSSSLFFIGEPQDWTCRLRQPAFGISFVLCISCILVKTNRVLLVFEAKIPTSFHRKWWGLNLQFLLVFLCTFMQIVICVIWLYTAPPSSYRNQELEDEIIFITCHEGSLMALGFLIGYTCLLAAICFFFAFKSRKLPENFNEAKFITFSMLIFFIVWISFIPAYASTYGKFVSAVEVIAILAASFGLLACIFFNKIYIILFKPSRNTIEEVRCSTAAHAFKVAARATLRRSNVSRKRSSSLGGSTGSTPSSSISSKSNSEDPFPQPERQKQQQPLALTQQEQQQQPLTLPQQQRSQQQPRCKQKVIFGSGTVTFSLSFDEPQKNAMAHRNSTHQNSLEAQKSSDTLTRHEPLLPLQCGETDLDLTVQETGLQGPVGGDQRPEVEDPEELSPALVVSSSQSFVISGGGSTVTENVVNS
Test: In-vitro assay of calcimimetics through modulation of Calcium Sensing Receptor (intracellular calcium increase, FLIPR)
Assay type: cell-based
Details: stably transfected HEK293 cells expressing hCaSR; Fluo4NW dye; 0.3 mM CaCl2; 8-point assay; read-out: EC50 Range
Protocol: Certain illustrative compounds within the scope of the invention are screened for CaSR activity according to the procedure given below. The screening of the compounds may also be carried by other methods and procedures known to skilled in the art.
In-vitro assay method of Calcimimetics through modulation of Calcium Sensing Receptor (CaSR):
The ability of the compounds to modulate Calcium sensing receptor is determined by measuring an increase in intracellular calcium [Ca^2+]i. Stably transfected HEK293 cells expressing hCaSR_pTriEx-3 hygro vector are developed. Cells are grown overnight on a 96-well plate to 80% confluency in Ham's F12 containing 20% FBS at 37° C., 5% CO2. Subsequently, cells are washed extensively with 20 mM HEPES buffer containing 126 mM […], 1 mM MgCl2 and 4 mM KCl to remove serum components that might interfere with the assay. Cells are loaded with calcium sensing Fluo4NW dye in HEPES base buffer containing 0.1% BSA and lmg/ml glucose for 30 minutes to measure changes in intracellular calcium. The activities of the compounds are measured in FLIPR using 0.3 mM CaCl2 in 20 mM HEPES base buffer. The effectiveness of the compound to modulate receptor activity is determined by calculating the EC50 responses for that compound in an 8-point assay and plotted using GraphPad Prism 5.
The compounds prepared were tested using the above assay procedure and the results obtained are given below.

Row | EC50 [nM] | SMILES
1 | < 20 | C[C@@H](NCC1Cc2ccccc2C(c2cccc(C(=O)O)c2)C1)c1cccc2ccccc12 (single isomer, unassigned) [Example 2a, hydrochloride]
2 | 50 to 200 | C[C@@H](NCC1Cc2ccccc2C(c2cccc(C(=O)O)c2)C1)c1cccc2ccccc12 (single isomer, unassigned) [Example 2b, hydrochloride]
3 | 20 to 50 | C[C@@H](NCC1Cc2ccccc2C(c2cccc(C(=O)O)c2)C1)c1cccc2ccccc12 (single isomer, unassigned) [Example 2c, hydrochloride]
4 | < 20 | C[C@@H](NCC1Cc2ccccc2C(c2ccc(F)c(C(=O)O)c2)C1)c1cccc2ccccc12 (single isomer, unassigned) [Example 7a, hydrochloride]
5 | < 20 | C[C@@H](NCC1Cc2ccccc2C(c2ccc(F)c(C(=O)O)c2)C1)c1cccc2ccccc12 (single isomer, unassigned) [Example 7b, hydrochloride]
6 | 20 to 50 | C[C@@H](NCC1Cc2ccccc2C(c2ccc(F)c(C(=O)O)c2)C1)c1cccc2ccccc12 (single isomer, unassigned) [Example 7c, hydrochloride]
7 | < 20 | Cc1ccc(C2CC(CN[C@H](C)c3cccc4ccccc34)Cc3ccccc32)cc1C(=O)O (single isomer, unassigned) [Example 8a, hydrochloride]
8 | < 20 | Cc1ccc(C2CC(CN[C@H](C)c3cccc4ccccc34)Cc3ccccc32)cc1C(=O)O (single isomer, unassigned) [Example 8b, hydrochloride]
9 | 50 to 200 | Cc1ccc(C2CC(CN[C@H](C)c3cccc4ccccc34)Cc3ccccc32)cc1C(=O)O (single isomer, unassigned) [Example 8c, hydrochloride]
10 | 20 to 50 | Cc1ccc(C2CC(CN[C@H](C)c3cccc4ccccc34)Cc3ccccc32)cc1C(=O)O (single isomer, unassigned) [Example 8d, hydrochloride]
11 | 20 to 50 | Cc1cc(C(=O)O)cc(C2CC(CN[C@H](C)c3cccc4ccccc34)Cc3ccccc32)c1 (single isomer, unassigned) [Example 9b, hydrochloride]
12 | 50 to 200 | Cc1cc(C(=O)O)cc(C2CC(CN[C@H](C)c3cccc4ccccc34)Cc3ccccc32)c1 (single isomer, unassigned) [Example 9c, hydrochloride]
13 | < 20 | Cc1ccc(C2CC(CN[C@H](C)c3cccc4ccccc34)Cc3ccccc32)c(C)c1C(=O)O (single isomer, unassigned) [Example 10a, hydrochloride]
14 | 20 to 50 | Cc1cc(C2C[C@H](CN[C@H](C)c3cccc4ccccc34)Cc3ccccc32)ccc1C(=O)O (single isomer, unassigned) [Example 13a, hydrochloride]
15 | < 20 | Cc1cc(C2C[C@H](CN[C@H](C)c3cccc4ccccc34)Cc3ccccc32)ccc1C(=O)O (single isomer, unassigned) [Example 13b, hydrochloride]
16 | 50 to 200 | Cc1ccc(C(=O)O)cc1C1C[C@H](CN[C@H](C)c2cccc3ccccc23)Cc2ccccc21 (single isomer, unassigned) [Example 14a, hydrochloride]
17 | < 20 | Cc1ccc(C(=O)O)cc1C1C[C@H](CN[C@H](C)c2cccc3ccccc23)Cc2ccccc21 (single isomer, unassigned) [Example 14b, hydrochloride]
18 | < 20 | COc1cc([C@@H](C)NC[C@@H]2Cc3ccccc3C(c3ccc(C)c(C(=O)O)c3)C2)ccc1F (single isomer, unassigned) [Example 16a, hydrochloride]

Row | EC50 [nM] | SMILES
19 | 20 to 50 | COc1cc([C@@H](C)NC[C@@H]2Cc3ccccc3C(c3ccc(C)c(C(=O)O)c3)C2)ccc1F (single isomer, unassigned) [Example 16b, hydrochloride]
20 | < 20 | Cc1ccc(C2C[C@H](CN[C@H](C)c3ccc(F)c4ccccc34)Cc3ccccc32)cc1C(=O)O (single isomer, unassigned) [Example 19a, hydrochloride]
21 | 20 to 50 | Cc1ccc(C2C[C@H](CN[C@H](C)c3ccc(F)c4ccccc34)Cc3ccccc32)cc1C(=O)O (single isomer, unassigned) [Example 19b, hydrochloride]
22 | < 20 | Cc1ccc(C2C[C@H](CCN[C@H](C)c3cccc4ccccc34)Cc3ccccc32)cc1C(=O)O (single isomer, unassigned) [Example 27a, hydrochloride]
23 | 50 to 200 | Cc1ccc(C(=O)O)cc1N1CC(CN[C@H](C)c2cccc3ccccc23)Cc2ccccc21 (single isomer, unassigned) [Example 70b, hydrochloride]
24 | < 20 | Cc1ccc(N2CC(CN[C@H](C)c3cccc4ccccc34)Cc3ccccc32)c(C)c1C(=O)O (single isomer, unassigned) [Example 71a, hydrochloride]
25 | 20 to 50 | Cc1ccc(N2CC(CN[C@H](C)c3ccc(F)c4ccccc34)Cc3ccccc32)cc1C(=O)O (single isomer, unassigned) [Example 72b, hydrochloride]
26 | < 20 | COc1cc([C@@H](C)NCC2Cc3ccccc3N(c3ccc(C)c(C(=O)O)c3)C2)ccc1F (single isomer, unassigned) [Example 73a, hydrochloride]
27 | 50 to 200 | COc1cc([C@@H](C)NCC2Cc3ccccc3N(c3ccc(C)c(C(=O)O)c3)C2)ccc1F (single isomer, unassigned) [Example 73b, hydrochloride]
28 | < 20 | Cc1ccc(N2CC(CN[C@H](C)c3cccc4ccccc34)Cc3cc(F)ccc32)cc1C(=O)O (single isomer, unassigned) [Example 75a, hydrochloride]
29 | 20 to 50 | Cc1ccc(N2CC(CCN[C@H](C)c3cccc4ccccc34)Cc3ccccc32)cc1C(=O)O (single isomer, unassigned) [Example 76b, hydrochloride]
30 | < 20 | Cc1ccc(N2CC(CCN[C@H](C)c3cccc4ccccc34)Cc3ccccc32)cc1OCC(=O)O (single isomer, unassigned) [Example 77b, hydrochloride]
31 | < 20 | Cc1ccc(N2CC(CCCN[C@H](C)c3cccc4ccccc34)Cc3ccccc32)cc1C(=O)O (single isomer, unassigned) [Example 78b, hydrochloride]
32 | < 20 | Cc1c(C(=O)O)cccc1N1CC(CCCN[C@H](C)c2ccc(F)c3ccccc23)Cc2ccccc21 (single isomer, unassigned) [Example 79a, hydrochloride]
33 | 20 to 50 | Cc1ccc(N2CC(CCCN[C@H](C)c3cccc4ccccc34)Cc3ccccc32)cc1OCC(=O)O (single isomer, unassigned) [Example 80b, hydrochloride]
34 | < 20 | COc1cc([C@@H](C)NC[C@@H]2Cc3ccccc3C(c3ccc(C)c(C(=O)O)c3C)C2)ccc1F (stereo partly drawn) [Example 17, 3-((3S)-3-((((R)-1-(4-Fluoro-3-methoxyphenyl)ethyl)amino)methyl)-1,2,3,4-tetrahydronaphthalen-1-yl)-2,6-dimethylbenzoic acid hydrochloride]
35 | 20 to 50 | Cc1ccc(C2CC(N[C@H](C)c3cccc4ccccc34)Cc3ccccc32)cc1C(=O)O (stereo partly drawn) [Example 22, 2-Methyl-5-(3-(((R)-1-(naphthalen-1-yl)ethyl)amino)-1,2,3,4-tetrahydronaphthalen-1-yl)benzoic acid hydrochloride]
36 | 20 to 50 | Cc1cc(C2CC(N[C@H](C)c3cccc4ccccc34)Cc3ccccc32)ccc1C(=O)O (stereo partly drawn) [Example 23, 2-Methyl-4-(3-(((R)-1-(naphthalen-1-yl)ethyl)amino)-1,2,3,4-tetrahydronaphthalen-1-yl)benzoic acid hydrochloride]
